Experimental data reported in patent publication US20060234977A1, “Antiviral compostion comprising a sulphated glucose polymer and a bacteriostatic agent” (priority 2003, published 2006).

What was measured:
HIV = test: Activity against HIV and other sexually transmitted diseases; conditions: by comparison with dextrin 2- and 6-sulphates

Row | Substance | activity against HIV and other sexually transmitted diseases (STDs) (HIV) | spermicidal activity (Spermicidal activity)
1 | Dextrin 3-sulphate [Example 1] | relatively poor activity | –
2 | dextrin sulphate | – | little or no spermicidal activity
